Measurements reported in patent publication EP4745135A1 (Gluetacs Therapeutics (Shanghai) Co., Ltd., priority 2023, dated 2025).

Target: T1, human Cereblon WT GST-tagged protein (Homo sapiens, UniProt Q96SW2)
T1 construct: purchased CISBIO 64BDCRBNPEH
Assay: CRBN-binding affinity, HTRF (CEREBLON BINDING kit)
Settings: for inhibition at 0.5 µM: read-out: Inhibition Rate at 0.5 µM (%); for inhibition at 2 µM: read-out: Inhibition Rate at 2 µM (%)
Procedure: The CEREBLON BINDING kits (specification: 10,000 tests; product number: Catalog # 64BDCRBNPEH; CISBIO company) was used to determine the CRBN binding ability of the compounds to be tested through a HTRF method (homogeneous time-resolved fluorescence). The specific methods are as follows: • 1. […] Specifically, diluent #9 (1X) solution was used as the diluent, and multiple concentration gradients were set. […] Then, 2.5 µL of human Cereblon WT GST-tagged protein solution was added to each well. Finally, 5 µL of the thoroughly mixed Thalidomide-Re reagent and GST Eu antibody working solution were added to each of the aforementioned wells. […] The blank control wells were sequentially added with 2.5 µL of diluent #9 (1X) solution, 2.5 µL of PROTAC binding buffer, and 5 µL of thoroughly mixed Thalidomide-Re reagent and GST Eu antibody working solution. • 4.

T1 sequence (Q96SW2 whole entry): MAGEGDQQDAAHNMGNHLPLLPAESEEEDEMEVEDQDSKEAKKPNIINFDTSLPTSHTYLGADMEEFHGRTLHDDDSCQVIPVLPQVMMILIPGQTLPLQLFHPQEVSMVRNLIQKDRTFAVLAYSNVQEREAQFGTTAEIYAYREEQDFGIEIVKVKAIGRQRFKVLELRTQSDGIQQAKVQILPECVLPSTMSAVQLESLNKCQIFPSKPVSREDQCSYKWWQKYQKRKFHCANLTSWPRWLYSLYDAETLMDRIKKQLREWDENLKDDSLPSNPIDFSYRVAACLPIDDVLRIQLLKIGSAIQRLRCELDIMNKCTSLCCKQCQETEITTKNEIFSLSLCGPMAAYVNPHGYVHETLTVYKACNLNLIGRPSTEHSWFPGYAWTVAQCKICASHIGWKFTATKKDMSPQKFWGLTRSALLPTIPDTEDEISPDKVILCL

SMILES	inhibition at 0.5 µM [%]	inhibition at 2 µM [%]
O=C1CCC(N2Cc3c(CN4CCN(c5nc(N6CCNCC6)c6sccc6n5)CC4)cccc3C2=S)C(=O)N1 (stereo not shown) [GT-09036, 3-(4-((4-(4-(piperazin-1-yl)thieno[3,2-d]pyrimidin-2-yl)piperazin-1-yl)methyl)-1-thioxoisoindolin-2-yl)piperidine-2,6-dione]	60 to 80	80 to 100
O=C1CCC(N2Cc3cc(CN4CCN(c5ccncc5Br)CC4)ccc3C2=S)C(=O)N1 (stereo not shown) [GT-09236, 3-(5-((4-(3-bromopyridin-4-yl)piperazin-1-yl)methyl)-1-thioxoisoindolin-2-yl)piperidine-2,6-dione]	60 to 80	80 to 100
O=C1CCC(N2Cc3cc(CN4CCN(c5ccncc5F)CC4)ccc3C2=S)C(=O)N1 (stereo not shown) [GT-09237, 3-(5-((4-(3-fluoropyridin-4-yl)piperazin-1-yl)methyl)-1-thioxoisoindolin-2-yl)piperidine-2,6-dione]	60 to 80	80 to 100
O=C1CCC(N2Cc3cc(CN4CCN(c5ccnc(Cl)c5F)CC4)ccc3C2=S)C(=O)N1 (stereo not shown) [GT-09239, 3-(5-((4-(2-chloro-3-fluoropyridin-4-yl)piperazin-1-yl)methyl)-1-thioxoisoindolin-2-yl)piperidine-2,6-dione]	60 to 80	80 to 100
O=C1CCC(N2Cc3cc(CN4CCN(c5c(F)cncc5Cl)CC4)ccc3C2=S)C(=O)N1 (stereo not shown) [GT-09243, 3-(5-((4-(3-chloro-5-fluoropyridin-4-yl)piperazin-1-yl)methyl)-1-thioxoisoindolin-2-yl)piperidine-2,6-dione]	60 to 80	80 to 100
O=C1CCC(N2Cc3cc(CN4CCN(c5c(Cl)cncc5Cl)CC4)ccc3C2=S)C(=O)N1 (stereo not shown) [GT-09246, 3-(5-((4-(3,5-dichloropyridin-4-yl)piperazin-1-yl)methyl)-1-thioxoisoindolin-2-yl)piperidine-2,6-dione]	80 to 100	80 to 100
O=C1CCC(N2Cc3cc(CN4CCN(c5cc(Cl)nnc5Cl)CC4)ccc3C2=S)C(=O)N1 (stereo not shown) [GT-09248, 3-(5-((4-(3,6-dichloropyridazin-4-yl)piperazin-1-yl)methyl)-1-thioxoisoindolin-2-yl)piperidine-2,6-dione]	60 to 80	80 to 100
O=C1CCC(N2Cc3cc(CN4CCN(c5ncncn5)CC4)ccc3C2=S)C(=O)N1 (stereo not shown) [GT-09249, 3-(5-((4-(1,3,5-triazin-2-yl)piperazin-1-yl)methyl)-1-thioxoisoindolin-2-yl)piperidine-2,6-dione]	60 to 80	80 to 100
O=C1CCC(N2Cc3cc(CN4CCN(c5ccc(Cl)nn5)CC4)ccc3C2=S)C(=O)N1 (stereo not shown) [GT-09251, 3-(5-((4-(6-chloropyridazin-3-yl)piperazin-1-yl)methyl)-1-thioxoisoindolin-2-yl)piperidine-2,6-dione]	60 to 80	80 to 100
O=C1CCC(N2Cc3cc(CN4CCN(c5cnccn5)CC4)ccc3C2=S)C(=O)N1 (stereo not shown) [GT-09253, 3-(5-((4-(pyrazin-2-yl)piperazin-1-yl)methyl)-1-thioxoisoindolin-2-yl)piperidine-2,6-dione]	60 to 80	80 to 100
O=C1CCC(N2Cc3cc(CN4CCN(c5ncnc(Cl)c5Cl)CC4)ccc3C2=S)C(=O)N1 (stereo not shown) [GT-09254, 3-(5-((4-(5,6-dichloropyrimidin-4-yl)piperazin-1-yl)methyl)-1-thioxoisoindolin-2-yl)piperidine-2,6-dione]	60 to 80	80 to 100
O=C1CCC(N2Cc3cc(CN4CCN(c5cnnc(Cl)c5Cl)CC4)ccc3C2=S)C(=O)N1 (stereo not shown) [GT-09255, 3-(5-((4-(5,6-dichloropyridazin-4-yl)piperazin-1-yl)methyl)-1-thioxoisoindolin-2-yl)piperidine-2,6-dione]	80 to 100	80 to 100
O=C1CCC(N2Cc3cc(CN4CCC(c5ccon5)CC4)ccc3C2=S)C(=O)N1 (stereo not shown) [GT-09256, 3-(5-((4-(isoxazol-3-yl)piperidin-1-yl)methyl)-1-thioxoisoindolin-2-yl)piperidine-2,6-dione]	60 to 80	80 to 100
O=C1CCC(N2Cc3cc(CN4CCC(N5CCOc6cc(F)ccc65)CC4)ccc3C2=S)C(=O)N1 (stereo not shown) [GT-09272, 3-(5-((4-(7-fluoro-2,3-dihydro-4H-benzo[b][1,4]oxazin-4-yl)piperidin-1-yl)methyl)-1-thioxoisoindolin-2-yl)piperidine-2,6-dione]	60 to 80	80 to 100
O=C1CCC(N2Cc3cc(CN4CCC(N5C(=O)COc6cc(F)ccc65)CC4)ccc3C2=S)C(=O)N1 (stereo not shown) [GT-09273, 3-(5-((4-(7-fluoro-3-oxo-2,3-dihydro-4H-benzo[b][1,4]oxazin-4-yl)piperidin-1-yl)methyl)-1-thioxoisoindolin-2-yl)piperidine-2,6-dione]	60 to 80	80 to 100

More lines, now with the values ahead:

inhibition at 0.5 µM [%]	inhibition at 2 µM [%]	SMILES
60 to 80	80 to 100	O=C1CCC(N2Cc3cc(CN4CCN(c5noc6cc(F)ccc56)CC4)ccc3C2=S)C(=O)N1 (stereo not shown) [GT-09257]
60 to 80	80 to 100	O=C1CCC(N2Cc3cc(CN4CCN(c5noc6ccncc56)CC4)ccc3C2=S)C(=O)N1 (stereo not shown) [GT-09258, 3-(5-((4-(isoxazolo[4,5-c]pyridin-3-yl)piperazin-1-yl)methyl)-1-thioxoisoindolin-2-yl)piperidine-2,6-dione]
60 to 80	80 to 100	O=C1CCC(N2Cc3cc(CN4CCN(c5cccnn5)CC4)ccc3C2=S)C(=O)N1 (stereo not shown) [GT-09265, 3-(5-((4-(pyridazin-3-yl)piperazin-1-yl)methyl)-1-thioxoisoindolin-2-yl)piperidine-2,6-dione]
40 to 53	80 to 100	O=C1CCC(N2Cc3cc(CN4CCC(c5cccc6cnccc56)CC4)ccc3C2=S)C(=O)N1 (stereo not shown) [GT-09277, 3-(5-((4-(isoquinolin-5-yl)piperidin-1-yl)methyl)-1-thioxoisoindolin-2-yl)piperidine-2,6-dione]
60 to 80	80 to 100	O=C1CCC(N2Cc3cc(CN4CC(c5ccnc6cc(F)ccc56)C4)ccc3C2=S)C(=O)N1 (stereo not shown) [GT-09279, 3-(5-((3-(7-fluoroquinolin-4-yl)azetidin-1-yl)methyl)-1-thioxoisoindolin-2-yl)piperidine-2,6-dione]
80 to 100	80 to 100	O=C1CCC(N2Cc3cc(CN4CCN(c5ncnc6sccc56)CC4)ccc3C2=S)C(=O)N1 (stereo not shown) [GT-09280, 3-(5-((4-(thieno[2,3-d]pyrimidin-4-yl)piperazin-1-yl)methyl)-1-thioxoisoindolin-2-yl)piperidine-2,6-dione]
60 to 80	80 to 100	Cc1cc2c(N3CCN(Cc4ccc5c(c4)CN(C4CCC(=O)NC4=O)C5=S)CC3)ncnc2s1 (stereo not shown) [GT-09282, 3-(5-((4-(6-methylthieno[2,3-d]pyrimidin-4-yl)piperazin-1-yl)methyl)-1-thioxoisoindolin-2-yl)piperidine-2,6-dione]
40 to 53	80 to 100	CC(C)c1cc2c(N3CCN(Cc4ccc5c(c4)CN(C4CCC(=O)NC4=O)C5=S)CC3)ncnc2s1 (stereo not shown) [GT-09284, 3-(5-((4-(6-isopropylthieno[2,3-d]pyrimidin-4-yl)piperazin-1-yl)methyl)-1-thioxoisoindolin-2-yl)piperidine-2,6-dione]
80 to 100	80 to 100	Cc1sc2ncnc(N3CCN(Cc4ccc5c(c4)CN(C4CCC(=O)NC4=O)C5=S)CC3)c2c1C (stereo not shown) [GT-09285, 3-(5-((4-(5,6-dimethylthieno[2,3-d]pyrimidin-4-yl)piperazin-1-yl)methyl)-1-thioxoisoindolin-2-yl)piperidine-2,6-dione]
80 to 100	80 to 100	Cc1sc2ncnc(N3CCCN(Cc4ccc5c(c4)CN(C4CCC(=O)NC4=O)C5=S)CC3)c2c1C (stereo not shown) [GT-09287, 3-(5-((4-(5,6-dimethylthieno[2,3-d]pyrimidin-4-yl)-1,4-diazepan-1-yl)methyl)-1-thioxoisoindolin-2-yl)piperidine-2,6-dione]
80 to 100	80 to 100	O=C1CCC(N2Cc3cc(CN4CCN(c5ncnc6sc(Br)cc56)CC4)ccc3C2=S)C(=O)N1 (stereo not shown) [GT-09295, 3-(5-((4-(6-bromothieno[2,3-d]pyrimidin-4-yl)piperazin-1-yl)methyl)-1-thioxoisoindolin-2-yl)piperidine-2,6-dione]
60 to 80	80 to 100	O=C1CCC(N2Cc3cc(CN4CCN(c5ncnc6scc(-c7ccccc7)c56)CC4)ccc3C2=S)C(=O)N1 (stereo not shown) [GT-09297, 3-(5-((4-(5-phenylthieno[2,3-d]pyrimidin-4-yl)piperazin-1-yl)methyl)-1-thioxoisoindolin-2-yl)piperidine-2,6-dione]
60 to 80	80 to 100	O=C1CCC(N2Cc3cc(CN4CCN(c5ncc6ccsc6n5)CC4)ccc3C2=S)C(=O)N1 (stereo not shown) [GT-09303, 3-(5-((4-(thieno[2,3-d]pyrimidin-2-yl)piperazin-1-yl)methyl)-1-thioxoisoindolin-2-yl)piperidine-2,6-dione]
60 to 80	80 to 100	O=C1CCC(N2Cc3cc(CN4CCC(c5ncnc6sccc56)CC4)ccc3C2=S)C(=O)N1 (stereo not shown) [GT-09304, 3-(5-((4-(thieno[2,3-d]pyrimidin-4-yl)piperidin-1-yl)methyl)-1-thioxoisoindolin-2-yl)piperidine-2,6-dione]
